Measurements published in EP1247803A2, “Indolinone compounds suitable for modulation of protein kinases” (Sugen, Inc., priority 1996, dated 1998).

What was measured:
[1] = system: MET; test: MET biochemical kinase assay; set-up: species or system human; concentration or dose not given beside the values
In short: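 In this format, tyrosine phosphorylation of plate-captured human MET is followed in vitro after compound addition in ATP/divalent-cation buffer, detected by anti-phosphotyrosine-HRP with TMB substrate.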

[2] = target: PDGF-R (Homo sapiens, UniProt P09619); test: PDGF-R ELISA; format: cell-based
PDGF-R, sequence (P09619 33-1106, species assumed): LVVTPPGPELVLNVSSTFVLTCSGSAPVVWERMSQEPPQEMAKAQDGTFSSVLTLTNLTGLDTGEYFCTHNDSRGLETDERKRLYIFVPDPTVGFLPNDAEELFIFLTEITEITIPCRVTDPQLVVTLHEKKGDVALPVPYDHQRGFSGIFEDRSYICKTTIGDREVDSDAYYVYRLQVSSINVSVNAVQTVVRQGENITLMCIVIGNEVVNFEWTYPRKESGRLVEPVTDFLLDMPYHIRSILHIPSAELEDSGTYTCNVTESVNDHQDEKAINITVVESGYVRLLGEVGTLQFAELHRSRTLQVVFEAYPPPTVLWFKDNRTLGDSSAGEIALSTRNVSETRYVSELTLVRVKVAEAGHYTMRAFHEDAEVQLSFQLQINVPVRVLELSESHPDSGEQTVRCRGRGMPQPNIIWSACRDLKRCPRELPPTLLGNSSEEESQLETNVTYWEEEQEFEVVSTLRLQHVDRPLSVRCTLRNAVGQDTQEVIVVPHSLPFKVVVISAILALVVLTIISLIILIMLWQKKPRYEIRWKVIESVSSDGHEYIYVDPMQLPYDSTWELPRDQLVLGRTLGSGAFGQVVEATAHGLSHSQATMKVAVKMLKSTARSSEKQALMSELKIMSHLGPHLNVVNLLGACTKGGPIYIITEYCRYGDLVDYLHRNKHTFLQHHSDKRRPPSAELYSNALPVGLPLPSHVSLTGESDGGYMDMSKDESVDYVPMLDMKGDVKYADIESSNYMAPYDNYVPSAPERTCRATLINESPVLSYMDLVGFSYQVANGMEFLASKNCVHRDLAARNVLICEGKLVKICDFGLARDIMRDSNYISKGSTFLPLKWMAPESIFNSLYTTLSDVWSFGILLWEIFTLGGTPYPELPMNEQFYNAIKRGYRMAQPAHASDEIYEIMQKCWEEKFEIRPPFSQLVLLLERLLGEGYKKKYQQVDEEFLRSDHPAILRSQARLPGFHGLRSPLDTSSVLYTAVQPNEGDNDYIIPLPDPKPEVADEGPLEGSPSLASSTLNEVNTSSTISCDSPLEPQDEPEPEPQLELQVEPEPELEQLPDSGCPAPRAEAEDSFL
Text: A PDGF-R ELISA is described in International Patent Publication No. WO 96/40116, published December 19, 1996 by Tang et al.

[3] = target: T1, EGFR (Homo sapiens, UniProt P00533); test: EGFR ELISA assay (in vitro kinase activity, EGFR captured from A431 cell lysate); format: biochemical; set-up: concentration or dose not given beside the values
T1 construct: Add 7 ug A431 cell lysate per well (EGFR source); endogenous in cells; host or cells: A431
T1 sequence (P00533 25-1210): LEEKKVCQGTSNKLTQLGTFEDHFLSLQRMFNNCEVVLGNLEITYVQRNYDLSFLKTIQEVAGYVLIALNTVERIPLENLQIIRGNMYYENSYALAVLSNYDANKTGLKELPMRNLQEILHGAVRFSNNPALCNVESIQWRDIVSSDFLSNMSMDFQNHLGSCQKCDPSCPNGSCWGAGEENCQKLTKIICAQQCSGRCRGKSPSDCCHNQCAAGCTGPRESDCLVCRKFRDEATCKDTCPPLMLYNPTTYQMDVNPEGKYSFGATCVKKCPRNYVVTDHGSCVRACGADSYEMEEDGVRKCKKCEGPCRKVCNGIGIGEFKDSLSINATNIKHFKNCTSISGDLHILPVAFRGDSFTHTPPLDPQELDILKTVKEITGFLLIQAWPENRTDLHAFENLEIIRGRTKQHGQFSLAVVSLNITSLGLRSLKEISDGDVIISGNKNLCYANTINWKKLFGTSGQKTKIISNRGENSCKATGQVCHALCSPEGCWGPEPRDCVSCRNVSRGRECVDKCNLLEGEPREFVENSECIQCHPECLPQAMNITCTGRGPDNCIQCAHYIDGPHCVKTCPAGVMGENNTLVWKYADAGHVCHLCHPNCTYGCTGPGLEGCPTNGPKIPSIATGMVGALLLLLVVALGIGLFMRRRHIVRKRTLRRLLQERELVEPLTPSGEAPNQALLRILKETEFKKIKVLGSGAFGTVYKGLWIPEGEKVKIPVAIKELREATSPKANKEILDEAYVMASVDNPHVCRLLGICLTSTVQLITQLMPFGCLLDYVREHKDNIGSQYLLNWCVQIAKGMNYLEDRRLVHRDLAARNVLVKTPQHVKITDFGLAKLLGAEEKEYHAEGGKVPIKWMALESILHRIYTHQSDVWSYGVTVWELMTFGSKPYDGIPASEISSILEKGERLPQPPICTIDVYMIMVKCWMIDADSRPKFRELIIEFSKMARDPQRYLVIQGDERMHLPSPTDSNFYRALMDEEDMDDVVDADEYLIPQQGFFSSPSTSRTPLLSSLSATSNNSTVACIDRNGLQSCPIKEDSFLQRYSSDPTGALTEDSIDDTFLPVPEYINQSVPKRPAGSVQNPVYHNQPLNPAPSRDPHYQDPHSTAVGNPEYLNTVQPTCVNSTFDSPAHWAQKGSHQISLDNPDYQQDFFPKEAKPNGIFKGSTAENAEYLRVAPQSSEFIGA
In short: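 EGFR from A431 lysate was captured on plates coated with anti-EGFR antibody. Compounds were added 30 min before a 5 min phosphorylation with 3 µM ATP/5 mM MnCl2, which was stopped with 20 mM EDTA. Phosphotyrosine was detected with rabbit anti-phosphotyrosine, then a peroxidase-conjugated secondary and ABTS/H2O2, read at 410 nm.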

Compound	Met Kinase % Inhibition [1] [%]	PDGF Kinase %Inhibition [2]	Biochem EGFR %Inhibition [3] [%]
O=C(O)COc1ccccc1C=C1C(=O)Nc2ccc(I)cc21 [10728/B10]	79.3	2.7%	16.8
O=C1Nc2ccc(S(=O)(=O)Nc3ccc(C(F)(F)F)cc3)cc2C1=Cc1cc(O)ccc1O [10727/E10]	96.6	5.0%	85.1
O=C1Nc2ccc(CCCl)cc2C1=Cc1cc2c(cc1Cl)OCO2 [10727/G06]	31.1	-12.5%	-12.1
COc1cccc(C=C2C(=O)Nc3ccc(CCCl)cc32)c1OC [10727/G11]	-0.8	15.9%	-3.5
N#Cc1ccc(C=C2C(=O)Nc3ccc(CCCl)cc32)cc1 [10727/G09]	18.8	10.8%	-9.7
COc1cc(C=C2C(=O)Nc3c(Br)cc(Br)cc32)cc(OC)c1 [10728/A04]	28.5	15.6%	28.0
O=C1Nc2c(Br)cc(Br)cc2C1=Cc1ccc(Cl)c([N+](=O)[O-])c1 [10718/A08]	36.8		5.8
CNS(=O)(=O)c1ccc2c(c1)C(=Cc1cc3c(cc1Cl)OCO3)C(=O)N2 [10727/D06]	24.4	10.8%	8.6
O=C1Nc2c(Br)cc(Br)cc2C1=Cc1cc(C(F)(F)F)ccc1F [10728/A08]	40.2	0.5%	24.1
CCc1cc(CC)c(C=C2C(=O)Nc3ccc(CCCl)cc32)[nH]1 [10727/G03]	40.5	-10.3%	19.4
CCOC(=O)c1cc(C=C2C(=O)Nc3c(Br)cc(Br)cc32)oc1C [10718/A06]	61.3		19.4
COc1cc(C=C2C(=O)Nc3ccc(I)cc32)cc2c1OCO2 [10728/B11]	80.3	-12.4%	48.2
CNS(=O)(=O)c1ccc2c(c1)C(=Cc1ccccc1Sc1ccc(Cl)cc1)C(=O)N2 [10727/D05]	39.9	-0.1%	3.4
O=C1Nc2ccc(CCCl)cc2C1=Cc1coc2ccccc2c1=O [10727/G07]	29.6	-24.1%	5.4
CNS(=O)(=O)c1ccc2c(c1)C(=Cc1cc(Cl)cc(Br)c1O)C(=O)N2 [10727/D04]	76.0	6.4%	39.6
COc1cccc(C=C2C(=O)Nc3ccc(S(=O)(=O)N4CCOCC4)cc32)c1OC [10727/F11]	-3.0	18.1%	-2.6
O=C1Nc2ccc(S(=O)(=O)N3CCOCC3)cc2C1=Cc1cc2c(cc1Cl)OCO2 [10727/F06]	37.7	8.6%	4.9
COc1cc(C=C2C(=O)Nc3ccc(Br)c(C)c32)cc(OC)c1 [10728/C04]	33.6	27.2%	16.1
Cc1[nH]c(C=C2C(=O)Nc3ccc(CCCl)cc32)c(Br)c1Br [10717/G11]	73.8		71.7
Cc1c(Br)ccc2c1C(=Cc1ccccc1OCC(=O)O)C(=O)N2 [10728/C10]	28.7	11.2%	4.4
Cc1c(Br)ccc2c1C(=Cc1cc(C(F)(F)F)ccc1F)C(=O)N2 [10728/C08]	25.5	9.4%	17.5

Compound	Met Kinase % Inhibition [1] [%]	PDGF Kinase %Inhibition [2]	Biochem EGFR %Inhibition [3] [%]
N#Cc1ccc(C=C2C(=O)Nc3ccc(S(=O)(=O)N4CCOCC4)cc32)cc1 [10727/F09]	9.3	21.7%	-2.0
Cc1c(Br)ccc2c1C(=Cc1ccc3c(c1)Cc1ccccc1-3)C(=O)N2 [10728/C06]	22.9	2.7%	4.2
O=C1Nc2ccc(S(=O)(=O)Nc3ccc(C(F)(F)F)cc3)cc2C1=Cc1cc(Cl)cc(Br)c1O [10727/E04]	98.4	-7.4%	82.1
CNS(=O)(=O)c1ccc2c(c1)C(=Cc1cc(O)ccc1O)C(=O)N2 [10727/D10]	79.9	9.4%	86.2
COc1cccc(C=C2C(=O)Nc3ccc(S(=O)(=O)Nc4ccc(C(F)(F)F)cc4)cc32)c1OC [10727/E11]	-5.4	7.9%	-33.4
COc1cc(N(C)C)ccc1C=C1C(=O)Nc2c(Br)cc(Br)cc21 [10728/A05]	31.8	4.5%	17.7
O=C1Nc2ccc(I)cc2C1=Cc1cccc(C(F)(F)F)c1F [10728/B07]	82.2	20.9%	11.1
COc1cc(N(C)C)ccc1C=C1C(=O)Nc2ccc(Br)c(C)c21 [10728/C05]	33.7	23.2%	16.1
COc1ccc(OC)c(C=C2C(=O)Nc3ccc(Br)c(C)c32)c1 [10728/C02]	15.5	42.3%	-35.4
CCc1cc(CC)c(C=C2C(=O)Nc3ccc(S(=O)(=O)N4CCOCC4)cc32)[nH]1 [10727/F03]	22.0	-3.7%	36.8
CNS(=O)(=O)c1ccc2c(c1)C(=Cc1cccc(C#N)c1)C(=O)N2 [10727/D08]	8.5	5.0 ! %	-0.5
CNS(=O)(=O)c1ccc2c(c1)C(=Cc1cc(OC)ccc1OC)C(=O)N2 [10728/D02]	21.4	9.8%	9.9
COc1cc(C=C2C(=O)Nc3ccc(I)cc32)cc(OC)c1 [10728/B04]	67.2	9.8%	-2.0
O=C1Nc2ccc(CCCl)cc2C1=Cc1cc(Cl)cc(Br)c1O [10727/G04]	94.0	-27.0%	80.6
N#Cc1cccc(C=C2C(=O)Nc3ccc(S(=O)(=O)Nc4ccc(C(F)(F)F)cc4)cc32)c1 [10727/E08]	27.0	23.9%	25.6
COc1cc(Br)c(O)c(C=C2C(=O)Nc3c(Br)cc(Br)cc32)c1 [10718/A03]	92.7		-6.1
CCOC(=O)CCc1c(C(=O)OCC)[nH]c(C=C2C(=O)Nc3c(Br)cc(Br)cc32)c1CC(=O)OCC [10718/A05]	36.1		-6.9
CCOC(=O)c1c(C)[nH]c(C=C2C(=O)Nc3c(Br)cc(Br)cc32)c1C [10718/A02]	54.6		11.3
COC(=O)c1[nH]c(C)c(C=C2C(=O)Nc3c(Br)cc(Br)cc32)c1C(=O)OC [10718/A07]	58.6		-10.6
O=C1Nc2c(Br)cc(Br)cc2C1=Cc1ccc2ccccc2c1O [10718/A04]	81.7		27.3
